This is an account of results in ChEMBL document CHEMBL1201862, “PubChem BioAssay data set” (2004).

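A five-concentration, 48-hour dose response in 96-well plates underlies each endpoint, interpolated linearly between surrounding concentrations. GI50 is the concentration that inhibits growth by half.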 The source made the active and inactive calls. Cut-off read from the data, not from the text of the source: active = GI50 up to about 1.1 µM and inactive = higher. Where only a bound is given, the exact number is not on record here.

Among the test systems are MDA-MB-435; OVCAR-3; SK-MEL-28; OVCAR-5; HCC 2998; MOLT-4; SK-MEL-5; NCI-H23; SK-MEL-2; COLO 205; A498; SN12C; SNB-19; SK-OV-3; RPMI-8226; CCRF-CEM; DU-145; SW-620; UACC-257; OVCAR-8.
Common to all, as to test: growth of human tumour cells (NCI), 48 h

For `CC(=O)c1ccc2c(c1)CC1(C2)Cc2ccc3c(c2C1=O)CCC3` (stereo not drawn), the GI50 was 17.9 µM (inactive) in the experiment on MDA-MB-435; 31 µM (inactive) in the experiment with OVCAR-3; 20.3 µM (inactive) in the experiment on SK-MEL-28; 36.8 µM (inactive) with OVCAR-5; 15 µM (inactive) with HCC 2998; 14.9 µM (inactive) in the experiment on MOLT-4. Further, the GI50 in the experiment on SK-MEL-5 is 13.3 µM (inactive); with NCI-H23, 31.2 µM (inactive); in the experiment on SK-MEL-2 it was 17.1 µM (inactive); with COLO 205, 18.3 µM (inactive); in the experiment on A498, 39.3 µM (inactive); in the experiment with SN12C, 31.8 µM (inactive). Also, the GI50 in the experiment with SNB-19 was 53.1 µM (inactive); with SK-OV-3, 34.9 µM (inactive); in the experiment on RPMI-8226, 16.1 µM (inactive); with CCRF-CEM, 24.3 µM (inactive); in the experiment with DU-145, 31.3 µM (inactive); in the experiment on SW-620 it was 41 µM (inactive). Besides, the GI50 in the experiment on UACC-257 was 10.8 µM (inactive).

Consider `O=c1c2ccccc2nc(-c2ccccc2)n1O`, for which the GI50 was > 100 µM (inactive) with MDA-MB-435; 51.6 µM (inactive) in the experiment with OVCAR-3; > 100 µM (inactive) in the experiment with SK-MEL-28; > 100 µM (inactive) with OVCAR-5; > 100 µM (inactive) in the experiment with HCC 2998; 70.8 µM (inactive) in the experiment with SK-MEL-5. Further, the GI50 was 71 µM (inactive) in the experiment with NCI-H23; > 100 µM (inactive) in the experiment with SK-MEL-2; > 100 µM (inactive) in the experiment with COLO 205; > 100 µM (inactive) with A498; > 100 µM (inactive) in the experiment on SN12C; > 100 µM (inactive) with SNB-19. The GI50 in the experiment on SK-OV-3 is > 100 µM (inactive); in the experiment on RPMI-8226 it was 28.6 µM (inactive); with CCRF-CEM it was 19.6 µM (inactive); in the experiment on DU-145, > 100 µM (inactive); in the experiment with SW-620, > 100 µM (inactive); in the experiment on UACC-257 it was > 100 µM (inactive). Moreover, the GI50 with OVCAR-8 was 51.5 µM (inactive).

Turning to `COc1cc(NCc2ccc3n2-c2ccccc2OC3)cc(OC)c1OC`, the GI50 in the experiment on MDA-MB-435 was 14 µM (inactive); in the experiment with OVCAR-3, 28.6 µM (inactive); in the experiment on SK-MEL-28, 38.3 µM (inactive); in the experiment with OVCAR-5, 46.5 µM (inactive); in the experiment with HCC 2998 it was 16.1 µM (inactive); with SK-MEL-5, 15.6 µM (inactive). Further, the GI50 was 35.2 µM (inactive) in the experiment with NCI-H23; 20 µM (inactive) in the experiment on SK-MEL-2; 12.9 µM (inactive) with COLO 205; 13.5 µM (inactive) in the experiment on A498; 17.5 µM (inactive) in the experiment with SN12C; 69 µM (inactive) with SNB-19. Also, the GI50 is 7.89 µM (inactive) in the experiment with RPMI-8226; 12.6 µM (inactive) with CCRF-CEM; 72.1 µM (inactive) with DU-145; 35.6 µM (inactive) in the experiment on SW-620; 20.1 µM (inactive) in the experiment on UACC-257; 31 µM (inactive) with OVCAR-8.

For the compound `Cc1nc2ccccc2c(=O)n1NC(=O)Cc1ccccc1`, the GI50 in the experiment on MDA-MB-435, in the experiment on OVCAR-3, in the experiment on SK-MEL-28, in the experiment on OVCAR-5, in the experiment on HCC 2998 and in the experiment on MOLT-4 was > 100 µM (inactive) each time. For the same compound, the GI50 in the experiment with SK-MEL-5, in the experiment on NCI-H23, in the experiment on COLO 205, with A498, with SN12C and with SNB-19 was > 100 µM (inactive) in each case. The GI50 with SK-OV-3, with RPMI-8226, in the experiment with CCRF-CEM, in the experiment with DU-145, in the experiment on SW-620 and in the experiment on UACC-257 was > 100 µM (inactive) in each case. Moreover, the GI50 with OVCAR-8 was > 100 µM (inactive).

With `C=C(Cl)/C(=C\Cl)CCC(Cl)C(C)C` (stereo not drawn), the GI50 is > 100 µM (inactive) with MDA-MB-435; > 100 µM (inactive) in the experiment with OVCAR-3; > 100 µM (inactive) in the experiment on SK-MEL-28; > 100 µM (inactive) in the experiment with OVCAR-5; > 100 µM (inactive) in the experiment with HCC 2998; 44.2 µM (inactive) in the experiment on MOLT-4. In addition, the GI50 with SK-MEL-5, with NCI-H23, in the experiment with SK-MEL-2, with COLO 205, in the experiment with A498 and with SN12C was > 100 µM (inactive) in each case. The GI50 in the experiment with SNB-19 is > 100 µM (inactive); in the experiment on SK-OV-3 it was > 100 µM (inactive); in the experiment with RPMI-8226 it was 65.2 µM (inactive); with CCRF-CEM, 41.2 µM (inactive); in the experiment on DU-145, > 100 µM (inactive); with SW-620 it was 74.3 µM (inactive). In addition, the GI50 with UACC-257 is > 100 µM (inactive).

With `CC(=O)OCC1=C(C)C(OC(=O)C(OC(C)=O)[C@@H](NC(=O)c2ccccc2)c2ccccc2)CCC1(C)C` (stereo partly drawn), the GI50 in the experiment with MDA-MB-435, in the experiment on OVCAR-3, in the experiment on SK-MEL-28, with OVCAR-5, with HCC 2998 and in the experiment with MOLT-4 was > 100 µM (inactive) throughout. The GI50 with SK-MEL-5, in the experiment on NCI-H23, in the experiment with COLO 205, in the experiment with A498, in the experiment on SN12C and in the experiment with SNB-19 was > 100 µM (inactive) throughout. In addition, the GI50 in the experiment on SK-OV-3, with RPMI-8226, with CCRF-CEM, in the experiment on DU-145, with SW-620 and in the experiment on UACC-257 was > 100 µM (inactive) in each case. In the experiment with OVCAR-8, the GI50 is > 100 µM (inactive).

In the case of `O=C1/C(=N/O)Cc2c(Br)ccc(Br)c21`, the GI50 with MDA-MB-435 is 39.6 µM (inactive); in the experiment with OVCAR-3 it was 22.3 µM (inactive); in the experiment with SK-MEL-28 it was 60.3 µM (inactive); in the experiment with OVCAR-5 it was > 100 µM (inactive); in the experiment on HCC 2998, 24.2 µM (inactive); in the experiment with MOLT-4, 25.4 µM (inactive). The GI50 is 32.4 µM (inactive) with SK-MEL-5; 58.7 µM (inactive) in the experiment with NCI-H23; 17.9 µM (inactive) with SK-MEL-2; 68.1 µM (inactive) in the experiment with A498; 37.2 µM (inactive) in the experiment with SK-OV-3; 24.4 µM (inactive) in the experiment with RPMI-8226. The GI50 with CCRF-CEM was 27.8 µM (inactive); in the experiment with DU-145, 71.6 µM (inactive); in the experiment with SW-620, 63.5 µM (inactive); in the experiment with UACC-257 it was 42.2 µM (inactive); in the experiment with OVCAR-8, 42.7 µM (inactive).

Take `COCCOCCOC1=CC(=O)c2c(O)ccc(O)c2C1=O`: the GI50 in the experiment on MDA-MB-435 was 0.0278 µM (active); in the experiment on OVCAR-3, 1.44 µM (inactive); with SK-MEL-28, 1.54 µM (inactive); with HCC 2998, 1.82 µM (inactive); in the experiment with MOLT-4, 2.04 µM (inactive); in the experiment on SK-MEL-5, 0.173 µM (active). Further, the GI50 was 1.69 µM (inactive) in the experiment on NCI-H23; 1.84 µM (inactive) in the experiment on SK-MEL-2; 0.296 µM (active) with COLO 205; 2.67 µM (inactive) in the experiment with A498; 1.96 µM (inactive) in the experiment on SN12C; 1.75 µM (inactive) with SNB-19. The GI50 in the experiment with SK-OV-3 is > 10 µM (inactive); with RPMI-8226 it was 1.37 µM (inactive); in the experiment on CCRF-CEM, 1.41 µM (inactive); in the experiment on DU-145, 1.49 µM (inactive); with SW-620 it was 0.571 µM (active); in the experiment on UACC-257, 0.397 µM (active).
